The target in one data set is T1, F508del-CFTR (Homo sapiens, UniProt P13569, DEL508-508).
T1 construct: expressed in transfected cells
The experiment in a line: Membrane potential optical (FLIPR) assay for F508del-CFTR modulators in NIH 3T3 cells. Format: cell-based. Conditions: NIH 3T3 cells expressing F508del; assay A1; read-out: CFTRdF508 Cor 3T3 FLIPR 384 CFTRdF508 MP 3T3 770 EC50. From the text: Membrane Potential Optical Methods for Assaying Properties of F508del-CFTR Modulators
The assay utilizes fluorescent voltage sensing dyes to measure changes in membrane potential using a fluorescent plate reader (e.g., FLIPR III, Molecular Devices, Inc.) as a readout for increase in functional F508del in NIH 3T3 cells. The driving force for the response is the creation of a chloride ion gradient in conjunction with channel activation and concurrent with compound treatment by a single liquid addition step after the cells have previously been loaded with a voltage sensing dye.
A1. Identification of F508del-CFTR Modulators
To identify modulators of F508del, a fluorescence based HTS assay format was developed. This HTS assay utilizes fluorescent voltage sensing dyes to measure changes in membrane potential on the FLIPR III as a measurement for increase in gating (conductance) of F508del NIH 3T3 cells. The driving force for the response is the creation of a chloride ion gradient in conjunction with channel activation and concurrent with compound treatment by a single liquid addition step after the cells have previously been loaded with a voltage sensing dye.
Bath Solution #1: (in mM) NaCl 160, KCl 4.5, CaCl2 2, MgCl2 1, HEPES 10, pH 7.4 with NaOH, Glucose 10.
Chloride-free bath solution: Chloride salts in Bath Solution #1 (above) are substituted with gluconate salts.
NIH3T3 mouse fibroblasts stably expressing F508del were used for optical measurements of membrane potential. The cells were maintained at 37° C. in 5% CO2 and 90% humidity in Dulbecco's modified Eagle's medium supplemented with 2 mM glutamine, 10% fetal bovine serum, 1×NEAA, β-ME, 1× pen/strep, and 25 mM HEPES in 175 cm^2 culture flasks. For all optical assays, the cells were seeded at 12,000 cells/well in 384-well matrigel-coated plates and cultured for 18-24 hrs at 37° C. for the potentiator assay. For the correction assay, the cells were cultured at 37° C. with and without compounds for 18-24 hours.

For a further data set, the system named is Rat hepatocytes. The experiment in a line: Hepatocyte clearance, rat hepatocytes. It is filed as in vitro ADME. Conditions: percent unchanged.
For another data set, the target named is T2, human PXR (Homo sapiens, UniProt O75469).
T2 construct: host or cells: DPX-2 cell line (derived from HepG2)
T2 sequence (O75469 1-434): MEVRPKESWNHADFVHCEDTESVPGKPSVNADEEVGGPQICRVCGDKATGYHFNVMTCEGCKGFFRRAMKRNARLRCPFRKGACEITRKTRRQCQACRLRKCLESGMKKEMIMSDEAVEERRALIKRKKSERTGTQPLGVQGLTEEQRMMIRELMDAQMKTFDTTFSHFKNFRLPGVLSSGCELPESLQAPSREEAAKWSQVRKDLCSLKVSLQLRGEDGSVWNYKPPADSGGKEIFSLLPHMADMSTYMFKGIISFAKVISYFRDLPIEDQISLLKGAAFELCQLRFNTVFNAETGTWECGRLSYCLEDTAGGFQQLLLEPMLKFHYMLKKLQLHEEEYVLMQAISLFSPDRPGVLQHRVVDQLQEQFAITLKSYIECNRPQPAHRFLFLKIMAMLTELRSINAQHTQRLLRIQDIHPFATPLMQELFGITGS
As to the kind of experiment: PXR assay: PXR mediated CYP3A4 induction in DPX-2 cell line. Format: cell-based. Conditions: DPX-2 cells. The protocol: D. Experimental Protocol for PXR Assay
The propensity for PXR mediated CYP3A4 induction is assessed using the DPX-2 cell line in vitro. This cell line, which has been licensed from Puracyp Inc. was derived from HepG2 cells and has been stably transfected with genes encoding human PXR as well as a modified luciferase reporter linked to the CYP3A4 promoter region and related distal and proximal enhancers.
The assay is run in 384 well format and each test article is administered in 11 doses ranging from 0.1 to 60 μM. On day 1, DPX-2 cells which have previously been expanded in-house and cryopreserved are thawed and seeded in tissue culture plates. The following day, media is changed and cells are cultured in media containing test article, vehicle control or the positive control compound, the clinically validated CYP3A4 inducer rifampicin. Cells are cultured in the presence of test article for 48 hours and then cell viability is assessed using fluorescence based assay (Cell Titer-Fluor, Promega) with an EnVision Plate Reader (PerkinElmer). Subsequently, CYP3A4 transactivation, which is proportional to luciferase activity, is measured by reading luminescense using the Promega One-Glo reagent system using the same plate reader.
Data processing within the Genedata software package allows reporting of max fold induction compared to vehicle control, an EC50 value for CYP3A4 inducers and an 11 point-dose response curve.

Data set [1] in a line: MDCK-Wild Type permeability, 96 well + 0.1% BSA. Format: in vitro ADME. Conditions: dog, MDCK, A-B direction, read-out: MDCK-Wild Type-Permeability 96 well + 0.1% BSA Papp compound (A-B).

Data on 13 molecules can be found in US10793547B2, “Modulator of the cystic fibrosis transmembrane conductance regulator, pharmaceutical compositions, methods of treatment, and process for making the modulator” (Vertex Pharmaceuticals Incorporated, priority 2016, dated 2020).

pEC50: −log10 of the molar value.

T1 sequence (P13569 with tags, fused parts or gaps DEL508-508): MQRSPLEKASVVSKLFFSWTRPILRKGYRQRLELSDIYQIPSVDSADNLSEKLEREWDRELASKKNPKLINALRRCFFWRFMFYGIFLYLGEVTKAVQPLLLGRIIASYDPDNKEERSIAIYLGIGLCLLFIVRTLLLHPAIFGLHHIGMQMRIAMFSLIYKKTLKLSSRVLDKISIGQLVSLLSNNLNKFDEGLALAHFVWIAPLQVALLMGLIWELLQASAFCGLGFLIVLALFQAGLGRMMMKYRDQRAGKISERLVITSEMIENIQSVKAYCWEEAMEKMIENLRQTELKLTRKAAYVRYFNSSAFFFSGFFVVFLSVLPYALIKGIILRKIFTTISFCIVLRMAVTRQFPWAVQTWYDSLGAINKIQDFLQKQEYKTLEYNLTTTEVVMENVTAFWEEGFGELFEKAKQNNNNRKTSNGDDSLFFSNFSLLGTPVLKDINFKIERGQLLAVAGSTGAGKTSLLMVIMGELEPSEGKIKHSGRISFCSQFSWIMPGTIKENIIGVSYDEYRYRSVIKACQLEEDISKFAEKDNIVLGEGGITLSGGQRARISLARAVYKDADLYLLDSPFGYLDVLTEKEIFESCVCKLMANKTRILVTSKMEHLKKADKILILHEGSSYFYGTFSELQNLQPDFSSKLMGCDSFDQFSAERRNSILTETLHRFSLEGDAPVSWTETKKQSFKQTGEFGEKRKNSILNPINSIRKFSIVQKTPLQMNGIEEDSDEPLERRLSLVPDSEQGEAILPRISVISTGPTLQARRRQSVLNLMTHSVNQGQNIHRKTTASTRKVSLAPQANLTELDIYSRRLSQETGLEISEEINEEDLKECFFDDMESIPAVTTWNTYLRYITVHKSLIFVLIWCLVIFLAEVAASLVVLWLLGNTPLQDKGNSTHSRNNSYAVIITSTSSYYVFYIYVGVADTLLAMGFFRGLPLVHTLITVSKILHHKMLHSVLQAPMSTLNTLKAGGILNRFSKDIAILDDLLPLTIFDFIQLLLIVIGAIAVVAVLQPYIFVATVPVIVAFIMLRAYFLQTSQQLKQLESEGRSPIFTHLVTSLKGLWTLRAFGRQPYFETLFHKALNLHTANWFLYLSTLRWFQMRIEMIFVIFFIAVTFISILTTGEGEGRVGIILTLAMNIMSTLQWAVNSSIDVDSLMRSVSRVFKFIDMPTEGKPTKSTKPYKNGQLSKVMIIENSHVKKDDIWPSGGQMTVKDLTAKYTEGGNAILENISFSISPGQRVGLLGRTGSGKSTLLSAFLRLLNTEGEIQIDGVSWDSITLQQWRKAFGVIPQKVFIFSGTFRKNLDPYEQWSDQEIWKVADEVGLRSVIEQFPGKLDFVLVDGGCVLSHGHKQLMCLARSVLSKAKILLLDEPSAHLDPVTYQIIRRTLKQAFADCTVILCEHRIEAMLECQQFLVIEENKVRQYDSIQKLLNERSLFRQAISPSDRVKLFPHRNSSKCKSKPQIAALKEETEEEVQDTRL

As for `Cc1nn(C)cc1S(=O)(=O)NC(=O)c1ccc(-n2ccc(OCC3(C(F)(F)F)CC3)n2)nc1N1CC(C(C)(C)C)CC1(C)C` (single isomer, unassigned) [Compound 54, 2-(4-tert-butyl-2,2-dimethyl-pyrrolidin-1-yl)-N-(1,3-dimethylpyrazol-4-yl)sulfonyl-6-[3-[[1-(trifluoromethyl)cyclopropyl]methoxy]pyrazol-1-yl]pyridine-3-carboxamide], on F508del-CFTR, the pEC50 (commonly the negative decadic logarithm of the EC50, by convention in mol/L) is 7.30. Further, the “Hepatocyte clearance-Rat Rat hepatocytes CL pct_unchanged” value in the data set on Rat hepatocytes is 30%. Besides, the “CYP3A4 Induction-PXR human PXR internal Max % Activity” value at human PXR was found to be 5%. For the same molecule, in data set [1], the apical-to-basolateral permeability (Papp A→B) (commonly the apparent permeability from the apical to the basolateral side of a cell layer) is 1.1 ×10⁻⁶ cm/s.

For `C[C@@H]1CN(c2nc(-n3ccc(OCC(C)(C)C)n3)ccc2C(=O)NS(=O)(=O)c2ccc[nH]c2=O)C(C)(C)C1` [B, reference compound], the negative logarithm of the EC50 (pEC50) on F508del-CFTR was 6.59. Also, the “Hepatocyte clearance-Rat Rat hepatocytes CL pct_unchanged” value in the data set with Rat hepatocytes turned out to be 13%. For the same molecule, at human PXR, the “CYP3A4 Induction-PXR human PXR internal Max % Activity” value was determined as 3%. In data set [1], the Papp A→B was determined as 0.4 ×10⁻⁶ cm/s.

On to `C[C@@H]1CN(c2nc(-n3ccc(OCC4(C(F)(F)F)CC4)n3)ccc2C(=O)NS(=O)(=O)c2cn[nH]c2)C(C)(C)C1` [Compound 5, N-(1H-pyrazol-4-ylsulfonyl)-6-[3-[[1-(trifluoromethyl)cyclopropyl]methoxy]pyrazol-1-yl]-2-[(4S)-2,2,4-trimethylpyrrolidin-1-yl]pyridine-3-carboxamide], for which the negative logarithm of the EC50 (pEC50) at F508del-CFTR is 5.89. Besides, the “Hepatocyte clearance-Rat Rat hepatocytes CL pct_unchanged” value in the data set with Rat hepatocytes was found to be 33%. The “CYP3A4 Induction-PXR human PXR internal Max % Activity” value at human PXR is listed as 0%. Besides, the Papp A→B in data set [1] came out at 0.3 ×10⁻⁶ cm/s.

For `C[C@@H]1CN(c2nc(-n3ccc(OCC4(C(F)(F)F)CC4)n3)ccc2C(=O)NS(=O)(=O)c2cnn(C)c2)C(C)(C)C1` [Compound 6, N-(1-methylpyrazol-4-yl)sulfonyl-6-[3-[[1-(trifluoromethyl)cyclopropyl]methoxy]pyrazol-1-yl]-2-[(4S)-2,2,4-trimethylpyrrolidin-1-yl]pyridine-3-carboxamide], the negative logarithm of the EC50 (pEC50) on F508del-CFTR was 6.52. Besides, the “Hepatocyte clearance-Rat Rat hepatocytes CL pct_unchanged” value in the data set with Rat hepatocytes came out at 53%. Further, the “CYP3A4 Induction-PXR human PXR internal Max % Activity” value at human PXR is 0.9%. Besides, the Papp A→B in data set [1] was determined as 2.1 ×10⁻⁶ cm/s.

For `CCn1cc(S(=O)(=O)NC(=O)c2ccc(-n3ccc(OCC4(C(F)(F)F)CC4)n3)nc2N2C[C@@H](C)CC2(C)C)cn1` [Compound 7, N-(1-ethylpyrazol-4-yl)sulfonyl-6-[3-[[1-(trifluoromethyl)cyclopropyl]methoxy]pyrazol-1-yl]-2-[(4S)-2,2,4-trimethylpyrrolidin-1-yl]pyridine-3-carboxamide], the pEC50 at F508del-CFTR was 6.19. Further, at human PXR, the “CYP3A4 Induction-PXR human PXR internal Max % Activity” value is 4%. The Papp A→B in data set [1] is 3.1 ×10⁻⁶ cm/s.

As to `C[C@@H]1CN(c2nc(-n3ccc(OCC4(C(F)(F)F)CC4)n3)ccc2C(=O)NS(=O)(=O)c2cnn(C(C)(C)C)c2)C(C)(C)C1` [Compound 8, N-(1-tert-butylpyrazol-4-yl)sulfonyl-6-[3-[[1-(trifluoromethyl)cyclopropyl]methoxy]pyrazol-1-yl]-2-[(4S)-2,2,4-trimethylpyrrolidin-1-yl]pyridine-3-carboxamide], the negative-log EC50 (pEC50) at F508del-CFTR is 6.40. In the data set on Rat hepatocytes, the “Hepatocyte clearance-Rat Rat hepatocytes CL pct_unchanged” value was found to be 62%. For the same molecule, the “CYP3A4 Induction-PXR human PXR internal Max % Activity” value at human PXR amounted to 10%. For the same molecule, the Papp A→B in data set [1] turned out to be 3.2 ×10⁻⁶ cm/s.

`Cc1nn(C)c(C)c1S(=O)(=O)NC(=O)c1ccc(-n2ccc(OCC3(C(F)(F)F)CC3)n2)nc1N1C[C@@H](C)CC1(C)C` [Compound 16, 6-[3-[[1-(trifluoromethyl)cyclopropyl]methoxy]pyrazol-1-yl]-N-(1,3,5-trimethylpyrazol-4-yl)sulfonyl-2-[(4S)-2,2,4-trimethylpyrrolidin-1-yl]pyridine-3-carboxamide]: the negative-log EC50 (pEC50) at F508del-CFTR was 6.40. Moreover, in the data set on Rat hepatocytes, the “Hepatocyte clearance-Rat Rat hepatocytes CL pct_unchanged” value was 10%. Besides, the “CYP3A4 Induction-PXR human PXR internal Max % Activity” value at human PXR was 13%. Also, the Papp A→B in data set [1] amounted to 3.9 ×10⁻⁶ cm/s.

For `Cc1nn(C)cc1S(=O)(=O)NC(=O)c1ccc(-n2ccc(OCC3(C(F)(F)F)CCC3)n2)nc1N1C[C@@H](C)CC1(C)C` [Compound 19, N-(1,3-dimethylpyrazol-4-yl)sulfonyl-6-[3-[[1-(trifluoromethyl)cyclobutyl]methoxy]pyrazol-1-yl]-2-[(4S)-2,2,4-trimethylpyrrolidin-1-yl]pyridine-3-carboxamide], the negative logarithm of the EC50 (pEC50) on F508del-CFTR was 7.05. Further, the “CYP3A4 Induction-PXR human PXR internal Max % Activity” value on human PXR was 1%. Moreover, the Papp A→B in data set [1] turned out to be 8.8 ×10⁻⁶ cm/s.

`Cc1c(S(=O)(=O)NC(=O)c2ccc(-n3ccc(OCC4CC45CC5)n3)nc2N2C[C@@H](C)CC2(C)C)cnn1C` (stereo partly drawn) [Compound 26, N-(1,5-dimethylpyrazol-4-yl)sulfonyl-6-[3-(spiro[2.2]pentan-2-ylmethoxy)pyrazol-1-yl]-2-[(4S)-2,2,4-trimethylpyrrolidin-1-yl]pyridine-3-carboxamide]: the pEC50 at F508del-CFTR is 6.00. At human PXR, the “CYP3A4 Induction-PXR human PXR internal Max % Activity” value is listed as 6%. Besides, the apical-to-basolateral permeability (Papp A→B) in data set [1] came out at 2.3 ×10⁻⁶ cm/s.

As to `Cc1nn(C)cc1S(=O)(=O)NC(=O)c1ccc(-n2ccc(OCC(C3CC3)C3CC3)n2)nc1N1C[C@@H](C)CC1(C)C` [Compound 32, 6-[3-(2,2-dicyclopropylethoxy)pyrazol-1-yl]-N-(1,3-dimethylpyrazol-4-yl)sulfonyl-2-[(4S)-2,2,4-trimethylpyrrolidin-1-yl]pyridine-3-carboxamide], on F508del-CFTR, the negative logarithm of the EC50 (pEC50) is 6.70. Besides, the “CYP3A4 Induction-PXR human PXR internal Max % Activity” value on human PXR is recorded as 5%. Besides, in data set [1], the apical-to-basolateral permeability (Papp A→B) came to 3.8 ×10⁻⁶ cm/s.

Turning to `Cc1nn(C)cc1S(=O)(=O)NC(=O)c1ccc(-n2ccc(OCC(C)(C)C(F)(F)F)n2)nc1N1C[C@H](C)CC1(C)C` [Compound 37, N-(1,3-Dimethylpyrazol-4-yl)sulfonyl-6-[3-(3,3,3-trifluoro-2,2-dimethyl-propoxy)pyrazol-1-yl]-2-[(4R)-2,2,4-trimethylpyrrolidin-1-yl]pyridine-3-carboxamide], the negative logarithm of the EC50 (pEC50) on F508del-CFTR is 6.54. For the same molecule, the “CYP3A4 Induction-PXR human PXR internal Max % Activity” value at human PXR came out at 7%. Further, the Papp A→B in data set [1] came out at 5.1 ×10⁻⁶ cm/s.

In the case of `Cc1nn(C)cc1S(=O)(=O)NC(=O)c1ccc(-n2ccc(OC(C3CC3)C3CC3)n2)nc1N1C[C@@H](C)CC1(C)C` [Compound 48, 6-[3-(Dicyclopropylmethoxy)pyrazol-1-yl]-N-(1,3-dimethylpyrazol-4-yl)sulfonyl-2-[(4S)-2,2,4-trimethylpyrrolidin-1-yl]pyridine-3-carboxamide], the pEC50 at F508del-CFTR was 6.00. Further, the “CYP3A4 Induction-PXR human PXR internal Max % Activity” value on human PXR is on record as 8%. In addition, the apparent permeability from apical to basolateral (Papp A→B) in data set [1] amounted to 4.6 ×10⁻⁶ cm/s.

For `C[C@@H]1CN(c2nc(-n3ccc(OCC4CCC4)n3)ccc2C(=O)NS(=O)(=O)c2cccnc2N)C(C)(C)C1` [D, reference compound], the pEC50 on F508del-CFTR is 6.68. In the data set with Rat hepatocytes, the “Hepatocyte clearance-Rat Rat hepatocytes CL pct_unchanged” value is reported as 19%. Besides, on human PXR, the “CYP3A4 Induction-PXR human PXR internal Max % Activity” value was found to be 10%.
